Consider six molecules from patent US20260354377A1, “INSECTICIDAL AND ARACHNIDICIDAL COMPOSITIONS AND USES THEREOF” (priority 2023, published 2026).

Series [1] concerns Blata orientalis. Briefly: Evaluation of insecticidal effect of individual components (Example 9). The class given is in vivo, Oriental cockroach. The conditions noted are these: 0.3 grams on back, pairs; for Alive: weight %: caprylic acid 0.8, Miglyol 0.2, Tween 80 0.015, lecithin 0.15, DPPG 0.12, xanthan gum 0.0075; for Dead: caprylic acid 0.8, Emulsion Table 1 5.0 weight %. How it is done:
In order to evaluate the effect of individual components, the higher concentration of each was used, these are marked with an asterisk as presented in Table 9
The cockroach Blata orientalis was used as described in Example 1 part 3 because of its size, ease of application and predictable response to the formulation.
Pairs of insects were treated by applying 0.3 grams (ml) of test items from Table 9 above directly onto their backs following which individual insects were placed in separate plastic containers and observed over a period of one hour and overnight. A 5% aqueous dispersion of the emulsion from Table 1 and sterile distilled water were used as controls.

The nature of series [2]: Stability of aqueous dispersions of components. Type of series: physicochemical. As to conditions: laboratory homogeniser dispersion in water.
Series [3] deals with Blata orientalis. Briefly: Efficacy of NAC and PCA supplemented Reactive Emulsions, spray (Example 13). The class given is in vivo, Oriental Cockroach. As to conditions: 50 mM citrate buffer, NAC or PCA 0.1%, emulsion 5% where present; for Alive / Immobile / Moribund: ten insects. How it is done: In one embodiment of the present invention, Reactive Emulsions of this invention are acidic and are kept at or below pH 5.5 to retain reactivity. For this reason 0.1% W/W solutions of NAC and PCA were prepared in 50 mM sodium citrate buffer at pH 5.0 and reduced fatty acid Reactive Emulsion concentrate (Table 15) was added to these at 5% by weight.
NAC and PCA controls were prepared by dissolving 0.1% of each in 50 mM sodium citrate buffer • reduced fatty acid Reactive Emulsions were used to illustrate the additive effect of NAC and PCA because the rate of activity of higher concentration fatty acid Emulsions would swamp the effect.
A 5% by weight suspension of Emulsion concentrate was prepared in 50 mM sodium citrate buffer without either NAC or PCA was prepared as a negative control and 50 mM buffer on its own was used as a blank.
The Oriental Cockroach Blata Orientalis was used to evaluate the efficacy of the NAC and PCA supplemented reactive emulsion and the experimental design was the same as in Example 1. Individual insects were lifted with tweezers and sprayed with either NAC or PCA supplemented test formulations, negative control or buffer blank, ten insects in each case, and evaluated after 1 hour and 10 hours.

Series [4] in a line: Solubility and solution properties. The conditions noted are these: for solubility: water or oil. How it is done: An aqueous dispersion of de-lipidised lecithin and DPPG is prepared by blending the component with water at the desired concentration and allowing at least one hour to fully hydrate.
Both of these are water soluble and may be added to the water phase of either the emulsion concentrate or the diluted suspension.

Another series relates to lice. As to conditions: approved by FDA as a 1% solution; cited from earlier work.
In series [5] the test system is Blata orientalis. The experiment in a line: Efficacy of Permethrin delivered in reduced fatty acid Reactive Emulsion, spray (Example 12). Type of series: in vivo, Oriental Cockroach. The conditions noted are these: emulsion concentrates diluted to 5% in water, where present, 0.1%. The procedure:
Permethrin was added to the oil phase at 2 grams in 20 of total oil (oil phase) which is 2% of the concentrated reactive emulsion. For use in the test the concentrate was diluted to 5% in water, that is 1% oil phase containing 0.1% Permethrin (10% of recommended dose).
A Reactive Emulsion control was prepared using the formulation in Table 13 by replacing Permethrin with Miglyol at 15% and free fatty acid at 5%.
The Oriental Cockroach Blata Orientalis was used to evaluate the efficacy of the non-reactive emulsion and the experimental design was the same as in Example 1. Individual insects were lifted with tweezers and sprayed with either non-reactive test formulation, positive control or water blank, ten insects in each case, and evaluated after 1 hour and 10 hours.

The next series deals with hematophagous insects. The conditions noted are these: cited from earlier work.

“Also recorded” adds a separate entry of the source.

As for `CCCCCCCC(=O)O` [Caprylic acid], the Alive in the series with Blata orientalis [1] (1 hour post treatment) came out at 2; with Blata orientalis [1] (18 hours post treatment), 1. Also, the Dead in the series on Blata orientalis [1] (18 hours post treatment) is given as 1; in the series on Blata orientalis [1] (18 hours post treatment, listed as caprylic acid), “one”. Besides, in series [2], the “stability of aqueous dispersion” value is “co-acervate and settle out within minutes of being formed”.

Consider `CCCCCCCCCCCCCCCC(=O)OCC(COP(=O)(O)OCC(O)CO)OC(=O)CCCCCCCCCCCCCCC` (centres unmarked) [DPPG, di-palmitoyl phosphatidyl glycerol], for which the Alive in the series with Blata orientalis [1] (1 hour post treatment) and in the series on Blata orientalis [1] (18 hours post treatment) was 2 throughout. The “stability of aqueous dispersion” value in series [2] was “tendency to settle out”.

Consider `CC(=O)N[C@@H](CS)C(=O)O` [N-acetyl Cysteine, N-Acetyl Cysteine], for which the Mortality / efficacy in the series with Blata orientalis [3] (1 hour, 60 min) is 0%; in the series with Blata orientalis [3] (1 hour, listed as NAC), “no effect”; in the series on Blata orientalis [3] (10 hours, 600 min) it was 10%; with Blata orientalis [3] (10 hours, listed as NAC, 600 min) it was 10%. The figures for the Alive in the series with Blata orientalis [3] (1 hour) and in the series with Blata orientalis [3] (10 hours) were 10 and 9, respectively. The Immobile with Blata orientalis [3] (1 hour) came out at 0; in the series on Blata orientalis [3] (10 hours), 1. The Moribund in the series on Blata orientalis [3] (1 hour) and in the series with Blata orientalis [3] (10 hours) was 0 each time. Further, in series [4] (in solution), the pH in solution entry is given as “slightly basic pH in solution”. The solubility result in series [4] was “water soluble”.

For `CC1(C)C(C=C(Cl)Cl)C1C(=O)OCc1cccc(Oc2ccccc2)c1` (centres unmarked) [Permethrin], in series [4], the solubility entry is recorded as “sparingly soluble in water; also recorded: basically oil soluble”. Further, the effectiveness against lice entry with lice is on record as “effective against adult lice but not their eggs”. In addition, in the series with Blata orientalis [5] (1 hour), the Mortality is 0%. This molecule came in with an Alive in the series with Blata orientalis [5] (1 hour, ten insects) of 10. The Mortality / efficacy with Blata orientalis [5] (10 hours, 600 min) was 30%. In the series with Blata orientalis [5] (10 hours, ten insects), this molecule had an Alive of 7, an Immobile of 0 and a Moribund of 3.

For `CCC(C)OC(=O)N1CCCCC1CCO` (centres unmarked) [Picaridin], the repellent effect entry in the series with hematophagous insects was “broad spectrum effects combined with low toxicity”.

Consider `O=C1CCC(C(=O)O)N1` (centres unmarked) [Pyrrolidone Carboxylic Acid, 2-Pyrrolidone-5-Carboxylic Acid], for which, in the series with Blata orientalis [3] (1 hour), the Mortality / efficacy is given as 0%, the Alive came to 10, the Immobile is given as 0 and the Moribund is 0. This molecule also registered a Mortality / efficacy in the series on Blata orientalis [3] (10 hours, 600 min) of 20%. The molecule further showed a Mortality / efficacy with Blata orientalis [3] (10 hours, listed as PCA, 600 min) of 20%. In the series with Blata orientalis [3] (10 hours), this molecule returned an Alive of 8, an Immobile of 0 and a Moribund of 2.
